From PubChem BioAssay (NCI) come the findings set out here.

Assay in all cases: NCI tumour cell line growth inhibition, 48 h
Assay [1] has as its system MDA-MB-435.
For assay [2], the system named is K-562 leukemia.
Assay [3] concerns MALME-3M melanoma.
Assay [4] relates to UACC-257 melanoma.
The subject of assay [5] is SN12C renal.
For assay [6], the system named is OVCAR-5 ovarian.
Assay [7] has as its system SNB-19 CNS.
Assay [8] has as its system HT29 colon.
For assay [9], the system named is SF-268 CNS.
In assay [10] the test system is OVCAR-8 ovarian.

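Cells were grown in 96-well plates and exposed to each compound for 48 hours at five concentrations; endpoints were interpolated linearly between bracketing concentrations, or set to the highest concentration if not reached. GI50 = concentration required for 50% inhibition of growth. The concentration for full growth arrest is given as TGI.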

Turning to `c1ccc(-c2nnc(Nc3ccc4c(c3)OCCO4)o2)c(NCc2ccncc2)c1`, the GI50 in assay [1] was < 0.01 µM; in assay [2] it was < 0.01 µM; in [3], 0.68 µM; in [4] it was 3.97 µM; in [5], 0.0579 µM; in [6], 0.0904 µM. Besides, the GI50 in assay [7] is 0.0536 µM; in assay [8], 0.0321 µM; in [9], 0.0696 µM; in [10], 0.0419 µM. For the same molecule, the TGI was 0.0171 µM in assay [1]; 4.43 µM in assay [2]; > 67.3 µM in assay [3]; > 62.4 µM in assay [4]; > 64.6 µM in [5]; 79 µM in assay [6]. The TGI in assay [7] is > 100 µM; in assay [8], 1.75 µM; in assay [9], > 67.6 µM; in assay [10], > 42.2 µM.
For `CN(C)CCNC(=O)Cn1ccc(=O)c2ccc([N+](=O)[O-])cc21`, the TGI in assay [1], in assay [2], in [3], in [4], in [5] and in [6] was > 100 µM throughout. The TGI in assay [7], in assay [8] and in assay [9] was > 100 µM throughout.
Take `O=C(O)C[O][Sb][O]CC(=O)O`: the GI50 in assay [1], in [2], in [3], in assay [5], in assay [6] and in assay [7] was > 100 µM throughout. Also, the GI50 in assay [8], in assay [9] and in [10] was > 100 µM in each case. Further, the TGI in assay [1], in assay [2], in assay [3], in assay [5], in [6] and in assay [7] was > 100 µM throughout. For the same molecule, the TGI in assay [8], in assay [9] and in assay [10] was > 100 µM each time.
`C/C1=C\C/C=C(\C)[C@H]2CC(CC/C(C)=C/CC1)[C@@](C)(CO)O2`: the GI50 is > 100 µM in assay [1]; 28.4 µM in assay [2]; > 100 µM in [4]; 16.3 µM in [5]; > 100 µM in assay [6]; > 100 µM in assay [7]. For the same molecule, the figures for the GI50 in [8], in assay [9] and in [10] were > 100 µM, 80.6 µM and > 100 µM, respectively. Besides, the TGI in assay [1], in assay [2], in [4], in [5], in assay [6] and in [7] was > 100 µM throughout. For the same molecule, the TGI in [8], in assay [9] and in assay [10] was > 100 µM throughout.
With `CN(C)CCCNc1ccnc2cc([N+](=O)[O-])ccc12`, the TGI was 31.3 µM in [1]; > 100 µM in assay [2]; 11.4 µM in assay [3]; 27.7 µM in assay [4]; 39.9 µM in assay [5]; 42.4 µM in [6]. Moreover, the TGI is 6.99 µM in assay [8], 53.9 µM in [9] and 46.1 µM in assay [10].
With `ClC1=NC(Cl)C(Cl)=N/C1=N\c1ncn[nH]1` (stereo unspecified), the GI50 in assay [1] is 2.24 µM; in [3], 1.82 µM; in assay [4], 1.7 µM; in assay [5] it was 1.76 µM; in assay [6], 1.71 µM; in [7], 11.8 µM. The GI50 was 2.03 µM in [8], 2.24 µM in assay [9] and 2.27 µM in assay [10]. For the same molecule, the TGI is 6.01 µM in [1]; 3.7 µM in assay [3]; 4.25 µM in [4]; 3.31 µM in assay [5]; 3.27 µM in assay [6]; 25.4 µM in assay [7]. The TGI was found to be 3.9 µM in assay [8], 5.22 µM in assay [9] and 6.05 µM in assay [10].
In the case of `CO/N=C(/COc1c(-c2ccccc2)oc2ccccc2c1=O)c1ccc(OC)cc1`, the GI50 is 30.7 µM in [1]; 42.5 µM in [2]; > 100 µM in assay [3]; > 100 µM in assay [4]; 76.7 µM in assay [5]; > 100 µM in assay [6]. Besides, the GI50 in assay [8] is 51.6 µM; in [10] it was > 100 µM. The TGI in assay [1], in assay [2], in assay [3], in assay [4], in assay [5] and in assay [6] was > 100 µM each time. In addition, the TGI in assay [8] and in assay [10] was > 100 µM throughout.
Regarding `Cc1ncc(C(=O)Nc2ccc(CN3CCN(C)CC3)c(C(F)(F)F)c2)cc1C#Cc1cnc(N)c2ncccc12`, the GI50 in assay [1] is 0.0419 µM; in assay [3], < 0.0177 µM; in assay [4], 0.128 µM; in assay [5], 0.221 µM; in assay [6], 0.807 µM; in assay [7], 2.16 µM. Moreover, the GI50 in [8] was 0.0435 µM; in assay [9], 0.417 µM; in [10], 1.1 µM. Besides, the TGI amounted to 1.58 µM in [1]; 0.135 µM in [3]; 2.55 µM in assay [4]; 1.91 µM in assay [5]; 2.81 µM in [6]; 5.33 µM in assay [7]. Further, the results for the TGI in assay [8], in assay [9] and in assay [10] were 2.08 µM, 3 µM and 4.86 µM, respectively.
